Reference: patent US20100298137A1, “ACTIVE INGREDIENT COMBINATIONS WITH INSECTICIDAL PROPERTIES” (BAYER CROPSCIENCE AG, priority 2006, published 2010)

How the values were obtained:
Aphis gossypii = Aphis gossypii test (cotton leaves dipped into the preparation of active compound); format: in vivo; settings: leaf dip
From the text: (§1) The expected activity for a given combination of two active compounds can be calculated according to S. R. Colby, Weeds 15 (1967), 20-22 as follows:
(§2) If • X is the kill rate, expressed in % of the untreated control, when active compound A is applied at an application rate of m g/ha or at a concentration of m ppm, • Y is the kill rate, expressed in % of the untreated control, when active compound B is applied at an application rate of n g/ha or at a concentration of n ppm and • E is the kill rate, expressed in % of the untreated control, when active compounds A and B is applied at application rates of m and n g/ha or at a concentration of m and n ppm, then
(§3) If the actual kill rate is greater than calculated, the kill of the combination is superadditive, i.e. there is a synergistic effect. In this case, the actual observed kill rate has to be greater than the value for the expected kill rate (E) calculated from the formula given above.
(§4) To produce a suitable preparation of active compound, 1 part by weight of active compound is mixed with the stated amounts of solvent and emulsifier, and the concentrate is diluted with emulsifier-containing water to the desired concentration.
Cotton leaves (Gossypium hirsutum) which are heavily infested by the cotton aphid (Aphis gossypii) are treated by being dipped into the preparation of active compound of the desired concentration.
(§5) After the desired period of time, the kill in % is determined. 100% means that all aphids have been killed; 0% means that none of the aphids have been killed. The kill rates determined are entered into the Colby formula (see sheet 1).

Myzus persicae = Myzus persicae test (cabbage leaves dipped into the preparation of active compound); format: in vivo; settings: leaf dip
From the text: as §1, §2, §3, §4
Cabbage leaves (Brassica oleracea) which are heavily infested by the green peach aphid (Myzus persicae) are treated by being dipped into the preparation of active compound of the desired concentration.
as §5

## CC[S+]([O-])c1c(C#N)nn(-c2c(Cl)cc(C(F)(F)F)cc2Cl)c1N (centres unmarked) [ethiprole]
Aphis gossypii; 0.8 ppm
  Kill in % after 6 d: 30%

## emamectin benzoate
Aphis gossypii; 20 ppm
  Kill in % after 1 d: 10%

## spinosad
Myzus persicae; 100 ppm
  Kill in % after 1 d: 5%
  Kill in % after 6 d: 5%

## Cc1cc(C(F)(C(F)(F)F)C(F)(F)F)ccc1NC(=O)c1cccc(I)c1C(=O)NC(C)(C)CS(C)(=O)=O [flubendiamid, flubendiamide]
Myzus persicae; 100 ppm
  Kill in % after 6 d: 6%

## O=C1C=C(N(Cc2ccc(Cl)nc2)C2CC2)CO1 [compound (Ib)]
Aphis gossypii; 0.16 ppm
  Kill in % after 6 d: 0%
Aphis gossypii; 0.8 ppm
  Kill in % after 1 d: 45%
  Kill in % after 6 d: 50%
Aphis gossypii; 4 ppm
  Kill in % after 1 d: 80%
Myzus persicae; 0.16 ppm
  Kill in % after 6 d: 0%
Myzus persicae; 0.8 ppm
  Kill in % after 1 d: 10%
Myzus persicae; 4 ppm
  Kill in % after 1 d: 70%
  Kill in % after 6 d: 33%

## abamectin
Myzus persicae; 100 ppm
  Kill in % after 1 d: 55%

## FC(F)(F)c1ccc(OCCCOc2c(Cl)cc(OCC=C(Cl)Cl)cc2Cl)nc1 [pyridalyl]
Aphis gossypii; 100 ppm
  Kill in % after 1 d: 5%
Myzus persicae; 100 ppm
  Kill in % after 6 d: 0%

## CNC(=O)c1cc(Cl)cc(C)c1NC(=O)c1cc(Br)nn1-c1ncccc1Cl [rynaxapyr, 3-bromo-N-{4-chloro-2-methyl-6-[(methylamino)carbonyl]phenyl}-1-(3-chloropyridin-2-yl)-1H-pyrazole-5-carboxamide]
Aphis gossypii; 0.8 ppm
  Kill in % after 6 d: 15%
Myzus persicae; 4 ppm
  Kill in % after 1 d: 30%

## COC(=O)N(C(=O)N1COC2(C(=O)OC)Cc3cc(Cl)ccc3C2=N1)c1ccc(OC(F)(F)F)cc1 (centres unmarked) [indoxacarb]
Aphis gossypii; 100 ppm
  Kill in % after 1 d: 0%
Myzus persicae; 100 ppm
  Kill in % after 6 d: 20%

## COc1cccc(C(=O)NN(C(=O)c2cc(C)cc(C)c2)C(C)(C)C)c1C [methoxyfenozide]
Aphis gossypii; 100 ppm
  Kill in % after 1 d: 0%
Myzus persicae; 100 ppm
  Kill in % after 1 d: 0%

## CC(C)N1C(=O)N(c2ccccc2)CS/C1=N\C(C)(C)C [buprofezin]
Aphis gossypii; 100 ppm
  Kill in % after 1 d: 5%
Myzus persicae; 100 ppm
  Kill in % after 1 d: 0%

## CN(Cc1ccc(Cl)nc1)C1=CC(=O)OC1 [compound (Ia)]
Aphis gossypii; 0.16 ppm
  Kill in % after 1 d: 20%
Aphis gossypii; 0.8 ppm
  Kill in % after 1 d: 55%
Myzus persicae; 0.16 ppm
  Kill in % after 1 d: 10%
  Kill in % after 6 d: 0%
Myzus persicae; 0.8 ppm
  Kill in % after 1 d: 45%
  Kill in % after 6 d: 50%

## N#Cc1nn(-c2c(Cl)cc(C(F)(F)F)cc2Cl)c(N)c1[S+]([O-])C(F)(F)F (centres unmarked) [fipronil]
Aphis gossypii; 20 ppm
  Kill in % after 6 d: 70%
Myzus persicae; 4 ppm
  Kill in % after 6 d: 0%
